According to patent US20090170860A1, “Use of PARP-1 Inhibitors” (PHARMA MAR, S.A., SOCIEDAD UNIPERSONAL, priority 2005, published 2009):
Where two headings read alike, the source gives them in different places.

Tests used:
[1] = system: PARP-1 +/+ and −/− mouse embryonic fibroblasts (MEFs); test: MTS cytotoxicity assay in PARP-1 +/+ and −/− MEFs; format: cell-based; details: PARP-1 −/− versus +/+ MEFs, 72 hours after treatment
Description: PARP-1 +/+and −/− mouse embryonic fibroblasts (MEFs) were seeded into 96-well plates at a density of 5,000 cells/well. After 24 hours, cells were treated with serially diluted concentrations of ET-743. 72 hours following the initial treatment, an MTS (3-(4,5-dimethylthiazol-2-yl)-5([…])-2-(4-sulfophenyl)-2H-tetrazolium) cytotoxicity assay was performed. Results were plotted as percent cellular viability versus ET-743 or Zalypsis® concentration (FIGS. 1a and 1b, respectively).

[2] = system: SW620 colon carcinoma cells; test: MTS cytotoxicity assay, ET-743 with or without PARP inhibitor; format: cell-based; details: for IC50: 72 hours, MTS; for increased sensitization of cells to ET-743: SW620, PARP inhibitor (nicotinamide 10 mM or NU1025 100 μM) plus ET-743 versus ET-743 alone
Description: Four hours later, media containing ET-743 and the PARP inhibitor was washed out and replaced with another fixed dose of PARP inhibitor. Finally, 4 hours later, a final fixed dose of PARP inhibitor was added. 72 hours following the initial treatment, an MTS cytotoxicity assay was performed.

PARP = PARP (Homo sapiens, UniProt P09874); details: cited from earlier work
Chain of PARP (P09874 whole entry): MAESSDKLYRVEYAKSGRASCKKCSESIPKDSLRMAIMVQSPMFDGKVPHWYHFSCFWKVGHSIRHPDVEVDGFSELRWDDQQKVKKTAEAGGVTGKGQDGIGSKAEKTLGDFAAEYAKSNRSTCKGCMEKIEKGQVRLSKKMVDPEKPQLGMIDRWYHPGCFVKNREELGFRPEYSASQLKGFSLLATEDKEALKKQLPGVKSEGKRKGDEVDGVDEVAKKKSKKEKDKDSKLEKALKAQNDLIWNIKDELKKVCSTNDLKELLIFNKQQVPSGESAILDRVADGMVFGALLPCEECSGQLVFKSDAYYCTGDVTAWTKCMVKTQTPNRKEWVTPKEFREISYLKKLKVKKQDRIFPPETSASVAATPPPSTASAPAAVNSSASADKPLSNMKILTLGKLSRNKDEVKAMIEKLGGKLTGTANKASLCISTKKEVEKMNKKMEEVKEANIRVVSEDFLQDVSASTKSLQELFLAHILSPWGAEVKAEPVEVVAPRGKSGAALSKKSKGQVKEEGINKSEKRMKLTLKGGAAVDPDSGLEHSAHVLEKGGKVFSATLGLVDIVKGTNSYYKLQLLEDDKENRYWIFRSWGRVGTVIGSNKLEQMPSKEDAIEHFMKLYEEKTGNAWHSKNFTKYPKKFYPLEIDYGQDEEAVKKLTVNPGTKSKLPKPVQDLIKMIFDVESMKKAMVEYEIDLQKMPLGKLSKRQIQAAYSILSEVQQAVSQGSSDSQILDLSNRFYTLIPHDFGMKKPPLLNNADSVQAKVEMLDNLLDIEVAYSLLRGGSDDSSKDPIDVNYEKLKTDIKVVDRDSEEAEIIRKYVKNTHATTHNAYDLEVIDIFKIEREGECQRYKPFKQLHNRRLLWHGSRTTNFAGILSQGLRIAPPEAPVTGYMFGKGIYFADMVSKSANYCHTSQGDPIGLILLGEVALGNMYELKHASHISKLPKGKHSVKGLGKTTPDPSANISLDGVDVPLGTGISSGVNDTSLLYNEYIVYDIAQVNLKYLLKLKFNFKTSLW

COc1cc2c(cc1O)CCN[C@]21CS[C@@H]2c3c(OC(C)=O)c(C)c4c(c3[C@H](COC1=O)N1[C@@H]2[C@H]2c3c(cc(C)c(OC)c3O)C[C@@H]([C@@H]1O)N2C)OCO4 [ET-743, Ecteinascidin-743]
increase in cellular sensitivity on loss of PARP-1 [1]: ~30 fold | IC50 ([2]; Homo sapiens, SW-620, SW620, ET-743 alone, NU1025 experiment, read-out: IC50 ET-743 alone (FIG. 2b)): 1.8 nM | IC50 ([2]; Homo sapiens, SW-620, SW620, ET-743 alone, nicotinamide experiment, read-out: IC50 ET-743 alone (FIG. 2a)): 2 nM | IC50 ([2]; Homo sapiens, SW-620, SW620, NU1025 100 μM, 2 hour pre-treatment and repeated fixed doses, read-out: IC50 ET-743 in combination with NU1025 (FIG. 2b)): 0.37 nM | IC50 ([2]; Homo sapiens, SW-620, SW620, nicotinamide 10 mM, 2 hour pre-treatment and repeated fixed doses, read-out: IC50 ET-743 in combination with nicotinamide (FIG. 2a)): 0.41 nM

Cc1nc2c(O)cccc2c(=O)[nH]1 [NU1025]
cytotoxicity, PARP inhibitor treatment alone ([2]; SW620, NU1025 alone (100 μM), versus untreated cells): no increased level of cytotoxicity above the untreated cells | increased sensitization of cells to ET-743 [2]: 4.8 fold | potency as PARP inhibitor relative to nicotinamide (PARP): up to 1,000 times

COc1c(C)cc2c(c1O)[C@@H]1[C@@H]3Cc4c(OC(C)=O)c(C)c5c(c4[C@H](CNC(=O)/C=C/c4cccc(C(F)(F)F)c4)N3[C@@H](O)[C@H](C2)N1C)OCO5 [Zalypsis®]
increase in cellular sensitivity on loss of PARP-1 [1]: 110 fold

NC(=O)c1cccnc1 [nicotinamide]
inhibition at 10000 µM ([2]; Homo sapiens, SW-620, SW620, nicotinamide alone (10 mM), read-out: cell death, PARP inhibitor treatment alone): ~20% | increased sensitization of cells to ET-743 [2]: 4.9 fold
